Patent US7772225B2, “N-sulfamoyl-piperidineamides for the treatment or inhibition of obesity and related conditions” (Solvay Pharmaceuticals GmbH, priority 2005, dated 2010)

What was measured:
[1] = target: T1, human carbonic anhydrase isoenzyme II (hCA II) (Homo sapiens, UniProt P00918); assay: In vitro inhibition of human carbonic anhydrase isoenzyme II (hCA II), dansylamide fluorescence; assay type: binding; conditions: hCA II from erythrocytes 10^-7 M/L, read at 60 min 37° C., single measurements, read-out: IC50 (hCA II inhibiting effect in vitro)
T1 construct: human carbonic anhydrase isoenzyme II from erythrocytes (Sigma-Aldrich); purchased Sigma-Aldrich; host or cells: human erythrocytes (natural source)
Experimental: 1. In Vitro Inhibition of Human Carbonic Anhydrase Isoenzyme II (hCA II)
The test compounds of Formula I in 96 well microplates were diluted with aqua bidest by using an automatic pipettor (CyBiWell®). From the different dilution plates, aliquots of 20 μl were transferred to the 96 well black assay plates with a pipetting station (Tecan Genesis®). In a second step, 148 μl of potassium phosphate buffer (20 mM, pH 7.4) was added, and as a third step, 20 μl of enzyme solution (1 μM human carbonic anhydrase isoenzyme II from erythrocytes (Sigma-Aldrich), dissolved in potassium phosphate buffer) incubated for 60 min at room temperature and the fluorescence signal (Tecan Ultra® fluorescence reader; excitation wavelength: 280 nm; emission wavelength: 465 nm) read at the end of the preincubation period (FLU-1). After the preincubation time, 20 μl of aqueous dansylamide solution (1 mM dansylamide (Sigma-Aldrich), dissolved in hydrochloric acid) were added and the fluorescence signal read every 10 min for a period of 60 min at 37° C. For calculation, the fluorescence data of the time point 60 min (FLU-2) were used. The total volume of assay mixture amounted to 208 μl. The final concentration of carbonic anhydrase II was 10^−7 M/L, of dansylamide 2.25×10^−6 and of compounds from 10^−8 M/L up to 10^−5 M/L. Final concentration of DMSO as compound solvent was 0.1 mM. […]

[2] = system: C57B1/6 mice; assay: Acute in vivo food intake test in mice; conditions: 24 h food intake, 100 mg/kg/day oral gavage in two half doses, high caloric diet, male or female mice
Experimental: 2. Acute In Vivo Food Intake Test in Mice
The studies were carried out in male or female C57B1/6 mice (n=8-12 per group). The mice were kept on an inverted 12/12h light/dark cycle (lights on 22:00). They were allowed food (high caloric diet) and water ad libitum. Food intake and water consumption was measured daily. The test compound of Formula I was suspended in 1% methylcellulose in water and 2% (v/v) of Poloxamer 188 (Lutrol F68®) and administered by oral gavage at a dose of 100 mg/kg/day. One half of the dose was administered at 7.00-9.00 h; the remaining half of the dose was administered between 15.00-15.30 h.
In the test model described above, the test substances caused a decrease of the animals' 24 h food intake to the percentages of food intake when compared to control as given in the following Table 2.

Compound	IC50 [1] [µM]	other results
NS(=O)(=O)N1CCC(n2c(=O)[nH]c3ccccc32)CC1 [Example 10]	7.3	–
NS(=O)(=O)N1CCC(N(C(=O)Nc2ccc(C(F)(F)F)cc2)c2cccnc2)CC1	–	melting point: 188 to 191 °C
NS(=O)(=O)N1CCC(NC(=O)Nc2ccc(F)cc2)CC1 [Example 1, 4-{[[(4fluorophenyl)amino]-carbonyl]amino}piperidine-1-sulfonamide]	–	food intake [% of control] [2]: 83 % of control
NS(=O)(=O)N1CCC(N(Cc2ccccc2)C(=O)Nc2ccccc2)CC1 [Example 28]	6.6	–
